The source of these data is ChEMBL document CHEMBL4342418, “1,2,3-Triazole-containing hybrids as potential anticancer agents: Current developments, action mechanisms and structure-activity relationships” (Eur J Med Chem, 2019).

Assay [1] deals with K562. Briefly: Antiproliferative activity against human K562 cells assessed as reduction in cell viability after 24 hrs by MTT assay. In kind it is functional, cell-based. Conditions: K562, 24 h.
The test system of assay [2] is PBMC. Briefly: Cytotoxicity against human PBMC cells assessed as reduction in cell viability after 24 hrs by MTT assay. In kind it is cell-based.
Assay [3] has as its system HL-60. Briefly: Antiproliferative activity against human HL60 cells assessed as reduction in cell viability after 24 hrs by MTT assay. The note with it: HL-60, 24 h. The format is functional, cell-based. (Tetrazolium assays rely on reduction of a dye to a coloured formazan, in cell work by metabolically active cells.)
The test system of assay [4] is K562-Lucena 1. Briefly: Antiproliferative activity against human K562-Lucena 1 cells assessed as reduction in cell viability after 24 hrs by MTT assay. The note with it: K562-Lucena 1, 24 h. The format is functional, cell-based.
In assay [5] the test system is A549. Briefly: cells. In kind it is functional, cell-based. The note with it: Homo sapiens.
Description: Antiproliferative activity against human A549 cells by MTT assay
Assay [6] concerns NCI-H460. Briefly: Antiproliferative activity against human H460 cells by MTT assay. In kind it is functional, cell-based.
Assay [7] relates to MCF7. Briefly: cells. The format is functional, cell-based. The note with it: Homo sapiens.
Description: Antiproliferative activity against human MCF7 cells by MTT assay
Assay [8] concerns HCT-116. Briefly: Antiproliferative activity against human HCT116 cells by MTT assay. In kind it is functional, cell-based.
Assay [9] relates to HepG2. Briefly: Antiproliferative activity against human HepG2 cells by MTT assay. The format is functional, cell-based.
Assay [10] relates to K562. Briefly: Antiproliferative activity against human K562 cells by MTT assay. In kind it is functional, cell-based.
Assay [11] deals with LoVo. Briefly: Antiproliferative activity against human LoVo cells by MTT assay. In kind it is functional, cell-based.
The subject of assay [12] is MCF7. Briefly: Antiproliferative activity against human MCF7 cells assessed as reduction in cell viability after 72 hrs by MTT assay. The note with it: MCF7, 72 h. The format is functional, cell-based.
Assay [13] concerns T47D. Briefly: Antiproliferative activity against human T47D cells assessed as reduction in cell viability after 72 hrs by MTT assay. In kind it is functional, cell-based.
Assay [14] concerns HeLa. Briefly: Antiproliferative activity against human HeLa cells assessed as reduction in cell viability after 72 hrs by MTT assay. In kind it is functional, cell-based.
The test system of assay [15] is MDA-MB-231. Briefly: Antiproliferative activity against human MDA-MB-231 cells assessed as reduction in cell viability after 72 hrs by MTT assay. The format is functional, cell-based. Conditions: MDA-MB-231, 72 h, read-out: IC50.
Assay [16] concerns A-431. Briefly: Antiproliferative activity against human A431 cells assessed as reduction in cell viability after 72 hrs by MTT assay. The format is functional, cell-based. Conditions: A-431, 72 h.
In assay [17] the test system is A2780. Briefly: Antiproliferative activity against human A2780 cells assessed as reduction in cell viability after 72 hrs by MTT assay. In kind it is functional, cell-based. Conditions: A2780, 72 h.
Assay [18] can be described thus: Antiproliferative activity against human […] cells assessed as reduction in cell viability after 72 hrs by MTT assay. The format is functional, cell-based.
Assay [19] has as its system PC-3. Briefly: Antiproliferative activity against human PC3 cells assessed as reduction in cell viability after 24 hrs by MTT assay. The format is functional, cell-based. The note with it: PC-3, 24 h.
Assay [20] has as its system HepG2. Briefly: Antiproliferative activity against human HepG2 cells assessed as reduction in cell viability after 24 hrs by MTT assay. The format is functional, cell-based. The note with it: HepG2, 24 h.
Assay [21] relates to HCT-116. Briefly: Antiproliferative activity against human HCT116 cells assessed as reduction in cell viability after 24 hrs by MTT assay. In kind it is functional, cell-based. The note with it: HCT-116, 24 h.
Assay [22] concerns MCF7. Briefly: Antiproliferative activity against human MCF7 cells assessed as reduction in cell viability after 24 hrs by MTT assay. The format is functional, cell-based. Conditions: MCF7, 24 h.
Assay [23] is described as follows: Cytotoxicity against human HEK cells assessed as reduction in cell viability after 24 hrs by MTT assay. In kind it is cell-based. The note with it: HEK293, 24 h.
For assay [24], the system named is Erythrocyte. Briefly: Cytotoxicity against human RBC cells assessed as reduction in cell viability after 24 hrs by MTT assay. In kind it is cell-based.
Assay [25] can be described thus: Antiproliferative activity against BAEC cells assessed as reduction in cell viability after 3 days by coulter counting method. In kind it is functional, cell-based. Conditions: Bos taurus, 72 h.
The subject of assay [26] is L1210. Briefly: Antiproliferative activity against mouse L1210 cells assessed as reduction in cell viability after 3 days by coulter counting method. The format is functional, cell-based. Conditions: L1210, 72 h.
Assay [27] concerns MGC-803. Briefly: Antiproliferative activity against human MGC803 cells by MTT assay. In kind it is functional, cell-based.
Assay [28] has as its system MKN-28. Briefly: Antiproliferative activity against human MKN28 cells by MTT assay. The format is functional, cell-based.
Assay [29] deals with MKN-45. Briefly: Antiproliferative activity against human MKN45 cells by MTT assay. In kind it is functional, cell-based.

Molecules are shown by their SMILES.

Take `O=C1C=C(n2cc(-c3ccccc3)nn2)C(=O)c2ccccc21`: the IC50 in [1], in assay [2], in [3] and in [4] was 14.3 to 99.2 µM each time.
With `COc1ccc(-c2cn(C3=CC(=O)c4ccccc4C3=O)nn2)cc1`, the IC50 in [1], in assay [2], in assay [3] and in assay [4] was 14.3 to 99.2 µM in each case.
In the case of `COc1ccc2c(c1)OCC(=O)N2Cc1cn(Cc2ccccc2)nn1`, the results for the IC50 in assay [5] and in assay [6] were 10 µM and 8 µM, respectively.
In the case of `COc1ccc2[nH]cc(Cn3cc(COc4ccc(/C=C/C(=O)NO)cc4OC)nn3)c2c1`, the IC50 in assay [7], in assay [8], in assay [9], in assay [10] and in assay [11] was 3.57 to 6.21 µM in each case.
Regarding `CC(C)(C)c1ccc(-c2cn([C@H]3C[C@H]4[C@@H]5CCc6cc(OCc7ccccc7)ccc6[C@H]5CC[C@@]4(C)[C@@H]3O)nn2)cc1`, the IC50 in [12], in assay [13], in [14], in [15], in assay [16] and in assay [17] was 2.4 to 8.3 µM throughout. The IC50 in assay [18] was in the range of 2.4 to 8.3 µM.
Turning to `COc1cc2nc(Cl)nc(Nc3ccc(Cn4cc(-c5ccccc5)nn4)cc3)c2cc1OC`, the IC50 in [19] was 20.7 to 68 µM; in assay [20] it was 20.7 to 68 µM; in [21] it was 20.7 to 68 µM; in assay [22] it was 20.7 to 68 µM; in assay [23], 40.3 µM; in assay [24], 45.6 µM. In addition, the IC50 in assay [2] came out at 37.4 µM.
For the compound `CS(=O)(=O)c1ccc(-c2cn(-c3cccc(-c4ccccn4)c3)nn2)cc1`, the IC50 in assay [25] and in [26] was 100 µM throughout.
On to `COc1ccc(-n2cc(CN3c4ccccc4Sc4ccccc43)nn2)c([N+](=O)[O-])c1`, for which the half-maximal inhibitory concentration (IC50) in assay [27], in [28] and in assay [29] was 1.2 to 3.5 µM in each case.
On to `CS(=O)(=O)c1ccc(-c2cn(-c3ccc(Cl)c(-c4ccccn4)c3)nn2)c(Cl)c1`, for which the IC50 in assay [25] and in assay [26] was 40 to 82 µM throughout.

In general, IC50 refers to the concentration at which inhibition is half-maximal.
